Data: PubChem BioAssay AID248 (DTP/NCI, 2004)
“And” between values parts separate entries of the source, which are not always exact repeats. Equal entries are not always repeated. Inconclusive results and toxic doses are left out. No stated cut-off is given here; in the data, active means T/C of 150% or more; inactive means T/C below 125%.

Tested on: L1210 leukemia ip in BDF1 mice, survival T/C
Experiment: NCI In Vivo Anticancer Drug Screen. Data for tumor model L1210 Leukemia (intraperitoneal) in B6D2F1 (BDF1) mice
Details: endpoint: mean survival time, higher = longer survival
Method in brief: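 Survival endpoint. Drug-treated group vs vehicle group, expressed as T divided by C. Tumor passaged by transplantation.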

[1] = dose: 100.0 mg/kg/injection, schedule: Q01DX001 (ip), vehicle: saline
[2] = dose: 100.0 mg/kg/injection, schedule: Q04DX003 (ip), vehicle: saline with Tween-80
[3] = dose: 200.0 mg/kg/injection, schedule: Q01DX001 (ip), vehicle: saline
[4] = dose: 200.0 mg/kg/injection, schedule: Q04DX003 (ip), vehicle: saline with Tween-80
[5] = dose: 400.0 mg/kg/injection, schedule: Q01DX001 (ip), vehicle: saline
[6] = dose: 400.0 mg/kg/injection, schedule: Q04DX003 (ip), vehicle: saline with Tween-80
[7] = dose: 100.0 mg/kg/injection, schedule: Q04DX003 (ip), vehicle: saline
[8] = dose: 200.0 mg/kg/injection, schedule: Q04DX003 (ip), vehicle: saline
[9] = dose: 400.0 mg/kg/injection, schedule: Q04DX003 (ip), vehicle: saline

Measured: T/C

CC(C)(C)N1CC(C(=O)c2ccccc2)C1c1ccccc1 (stereo not drawn)
inactive: [1] 94 % of control | dose: 100.0 mg/kg/injection, schedule: Q01DX009 (ip), vehicle: Klucel (hydroxypropylcellulose) (HPC) 96 % of control | [2] 96 % of control and 107 % of control | [3] 94 % of control | dose: 200.0 mg/kg/injection, schedule: Q01DX009 (ip), vehicle: Klucel (hydroxypropylcellulose) (HPC) 101 % of control | [4] 90 % of control and 94 % of control | [5] 92 % of control | dose: 400.0 mg/kg/injection, schedule: Q01DX009 (ip), vehicle: Klucel (hydroxypropylcellulose) (HPC) 100 % of control | [6] 96 % of control and 98 % of control

Nc1csc(N)n1
inactive: dose: 75.0 mg/kg/injection, schedule: Q04DX003 (ip), vehicle: saline 107 % of control | [7] 97 % of control | dose: 150.0 mg/kg/injection, schedule: Q04DX003 (ip), vehicle: saline 105 % of control | [8] 96 % of control | dose: 300.0 mg/kg/injection, schedule: Q04DX003 (ip), vehicle: saline 94 % of control | [9] 103 % of control

c1ccc2c3c([nH]c2c1)CCC3
inactive: dose: 100.0 mg/kg/injection, schedule: Q01DX001 (ip), vehicle: carboxymethylcellulose (CMC) 93 % of control | dose: 200.0 mg/kg/injection, schedule: Q01DX001 (ip), vehicle: carboxymethylcellulose (CMC) 98 % of control | dose: 400.0 mg/kg/injection, schedule: Q01DX001 (ip), vehicle: carboxymethylcellulose (CMC) 102 % of control

N#CCN1CCOCC1
inactive: dose: 25.0 mg/kg/injection, schedule: Q01DX009 (ip), vehicle: saline 122 % of control | dose: 50.0 mg/kg/injection, schedule: Q01DX009 (ip), vehicle: saline 101 % of control | dose: 100.0 mg/kg/injection, schedule: Q01DX009 (ip), vehicle: saline 97 % of control and 98 % of control | [7] 103 % of control | dose: 200.0 mg/kg/injection, schedule: Q01DX009 (ip), vehicle: saline 110 % of control | [8] 97 % of control

O=C(c1ccccc1)C(Nc1ccccn1)c1ccccc1 (stereo not drawn)
inactive: dose: 75.0 mg/kg/injection, schedule: Q01DX001 (ip), vehicle: carboxymethylcellulose (CMC) 96 % of control | dose: 150.0 mg/kg/injection, schedule: Q01DX001 (ip), vehicle: carboxymethylcellulose (CMC) 94 % of control | dose: 300.0 mg/kg/injection, schedule: Q01DX001 (ip), vehicle: carboxymethylcellulose (CMC) 94 % of control

CC(C)=CCC1=C(O)C(C)=CC(=O)C1=O
inactive: dose: 100.0 mg/kg/injection, schedule: Q01DX001 (ip), vehicle: water 97 % of control | dose: 200.0 mg/kg/injection, schedule: Q01DX001 (ip), vehicle: water 94 % of control | dose: 400.0 mg/kg/injection, schedule: Q01DX001 (ip), vehicle: water 97 % of control

COc1ccc(C=Nc2ccccc2N=Cc2ccc(OC)c(OC)c2)cc1OC
inactive: dose: 100.0 mg/kg/injection, schedule: Q01DX009 (ip), vehicle: saline with Tween-80 106 % of control | [2] 96 % of control | dose: 200.0 mg/kg/injection, schedule: Q01DX009 (ip), vehicle: saline with Tween-80 97 % of control | [4] 93 % of control | dose: 400.0 mg/kg/injection, schedule: Q01DX009 (ip), vehicle: saline with Tween-80 106 % of control | [6] 93 % of control

COc1ccccc1NC(=O)C(C(C)=O)C(c1cccc([N+](=O)[O-])c1)C(C(C)=O)C(=O)Nc1ccccc1OC (stereo not drawn)
inactive: [1] 96 % of control | [3] 96 % of control | [5] 89 % of control

CCn1cc(C(=O)O)c(=O)c2ccc(C)nc21
inactive: dose: 100.0 mg/kg/injection, schedule: Q04DX003 (ip), vehicle: Klucel (hydroxypropylcellulose) (HPC) 97 % of control | dose: 200.0 mg/kg/injection, schedule: Q04DX003 (ip), vehicle: Klucel (hydroxypropylcellulose) (HPC) 96 % of control | dose: 400.0 mg/kg/injection, schedule: Q04DX003 (ip), vehicle: Klucel (hydroxypropylcellulose) (HPC) 94 % of control

CC(CC(C)(C)C)C(=O)Cl (stereo not drawn)
inactive: [1] 95 % of control | [3] 92 % of control | [5] 108 % of control

CN(C)CCSc1ncnc2nc[nH]c12
inactive: [7] 94 % of control | [8] 99 % of control | [9] 89 % of control
